Where a name gives a salt, the structure may show the parent alone.
Columns and labels:
Assay type in all cases: in vitro ADME
[1] = system: mouse hepatocytes; assay: Metabolite characterization in mouse hepatocytes; settings: mouse hepatocyte 1 h incubates of ETN101; ND:<1.2E+05 peak area
Method: (§1) We mixed 60 μL aliquots of 40 μM ETN101 in incubation medium and an equal volume of human, mouse, rat, dog, or monkey hepatocyte suspension in 96-well plates and incubated for 0 or 1 h in a CO2 incubator at 37 °C. The reactions were quenched by adding 120 µL of ice-cold acetonitrile to each well, and the cell suspension was sonicated for 5 min at 4 °C. Subsequently, centrifugation was carried out at 15,000× g for 10 min at 4 °C. Next, the supernatants were evaporated to dryness using a vacuum concentrator, and residues were re-dissolved in 70 μL of 30% acetonitrile. Each sample (5 μL aliquots) was analyzed using LC–HRMS system.
(§2) For metabolite characterization, a Vanquish HPLC system (Thermo Fisher Scientific, San José, CA, USA) coupled with a Q-Exactive Orbitrap mass spectrometer (Thermo Fisher Scientific Inc., Waltham, MA, USA) was used at Core Research Support Center for Natural Products and Medical Materials at Yeungnam University. […] The eluent from the column was directly injected into the mass spectrometer using a heated electrospray ionization (HESI) source in positive ionization mode. […] The spray voltage was 3.0 kV and the capillary temperature was 320 °C. Full scan MS^1 with a data-dependent MS^2 acquisition mode was applied to obtain MS^1 scan data ranging from m/z 80 to 900, at a resolution of 70,000, whereas data-dependent MS^2 spectra were acquired for the five most abundant peaks per cycle at a resolution of 35,000. The parallel reaction monitoring (PRM) mode was used to obtain the MS^2 spectra of putative metabolites detected at low peak intensities in the data-dependent MS^2 acquisition mode. Data were collected and interpreted using Thermo Scientific Xcalibur™ Software (Thermo Fisher Scientific).

[2] = system: monkey hepatocytes; assay: Metabolite characterization in monkey hepatocytes; settings: monkey hepatocyte 1 h incubates of ETN101; ND:<1.2E+05 peak area
Method: as §1, §2

[3] = system: human hepatocytes; assay: Metabolite characterization in human hepatocytes; settings: human hepatocyte 1 h incubates of ETN101; ND:<1.2E+05 peak area
Method: as §1, §2

[4] = system: rat hepatocytes; assay: Metabolite characterization in rat hepatocytes; settings: rat hepatocyte 1 h incubates of ETN101; ND:<1.2E+05 peak area
Method: as §1, §2

[5] = system: dog hepatocytes; assay: Metabolite characterization in dog hepatocytes; settings: dog hepatocyte 1 h incubates of ETN101; ND:<1.2E+05 peak area
Method: as §1, §2

CC(=O)Nc1ccc(-c2nc3ccccc3s2)cc1 [M2, N-Acetyl-CJM-126]
Relative peak area (%) [1]: 0.9% | Relative peak area (%) [2]: 5.8% | Relative peak area (%) [3]: 0.3% | Relative peak area (%) [4]: 5.7%

Nc1ccc(-c2nc3ccccc3s2)cc1O [M5, 3′-OH-CJM-126]
Relative peak area (%) [1]: < 0.1% | Relative peak area (%) [2]: < 0.1% | Relative peak area (%) [3]: 0.1% | Relative peak area (%) [4]: < 0.1% | Relative peak area (%) [5]: < 0.1%

O=C(O)[C@H]1O[C@@H](Nc2ccc(-c3nc4ccccc4s3)cc2)[C@H](O)[C@@H](O)[C@@H]1O [M9, CJM-126 glucuronide]
Relative peak area (%) [1]: < 0.1% | Relative peak area (%) [2]: < 0.1% | Relative peak area (%) [3]: 0.1% | Relative peak area (%) [4]: 0.1% | Relative peak area (%) [5]: 0.5%

O=S(=O)(O)Nc1ccc(-c2nc3ccccc3s2)cc1 [M10, CJM-126 sulfate]
Relative peak area (%) [4]: < 0.1%

— paper PMC11356571, “The Comparative Metabolism of a Novel Hepatocellular Carcinoma Therapeutic Agent, 2,3-Diamino-N-(4-(benzo[d]thiazol-2-yl)phenyl)propanamide, in Human and Animal Hepatocytes” (Metabolites, 2024)
